{
  "source": "patent US20230407265A1",
  "about": "“COMPOSITION AND METHODS FOR 3D CULTURE OF ISLET CELLS” (CITY OF HOPE, priority 2022, published 2023)",
  "tested_on": "human islets",
  "assay": "Islet viability and morphology assessment (PI/HO or FDA, DTZ staining)",
  "assay_type": "cell-based",
  "settings": "4 weeks in 3D hydrogel with 100 nM gastrin",
  "method": "Islet cells were stained with 10 μg/mL propidium iodide (PI) (Millipore Sigma, St. Louis, MO, USA) and 10 μg/mL of Hoechst 33342 (HO) (Thermo Fisher Scientific, Waltham, MA) for 5 minutes at room temperature, washed with PBS, then placed on a 6-well plate. The images of PI/HO staining were taken under a IXDP50 Olympus fluorescent microscope with DP74 camera using a 4× objective lens (Olympus America). Viability was determined by the area of PI staining divided by the area of HO staining analyzed by CellSens software. For the experiment with gastrin culture, 0.5 μM Fluorescein diacetate (FDA) solution (Millipore Sigma) was used instead of HO to determine the viable total islets. The viability was determined by the area of PI staining divided by the total islet area analyzed by CellSens software. Islet morphology was evaluated by dithizone (DTZ) staining.",
  "note": "Non-standard residues stand in square brackets, D forms with d. Residues, ends and D or L forms follow the SMILES beside them. pGlu = O=C1CC[C@@H](C(=O)O)N1",
  "data": [
    {"smiles": "CC(C)C[C@H](NC(=O)[C@H](Cc1c[nH]c2ccccc12)NC(=O)CNC(=O)[C@H](Cc1ccc(O)cc1)NC(=O)[C@H](C)NC(=O)[C@H](CCC(=O)O)NC(=O)[C@H](CCC(=O)O)NC(=O)[C@H](CCC(=O)O)NC(=O)[C@H](CCC(=O)O)NC(=O)[C@H](CCC(=O)O)NC(=O)[C@H](CC(C)C)NC(=O)[C@H](Cc1c[nH]c2ccccc12)NC(=O)[C@@H]1CCCN1C(=O)CNC(=O)[C@@H]1CCC(=O)N1)C(=O)N[C@@H](CC(=O)O)C(=O)N[C@@H](Cc1ccccc1)C(N)=O", "note": "[gastrin, [Leu15]-gastrin I] ([pGlu]GPWLEEEEEAYGWLDF-NH2)", "values": [
      {"measurement": "islet viability", "result": "92±6", "unit": "%"}
    ]}
  ]
}
